Test results as given in patent EP1148124A1 (priority 1999, dated 2000).
Where two headings read alike, the source gives them in different places.

Assay: Reporter assay (No. 1), cell number reporter gene (sea pansy luciferase, pRL-TK), clone of Example 2
Assay type: cell-based
Details: mouse, hepa1c1c7 cells, about 40 hours, ratio to 0 pg/ml, read-out: Amount of luminescence by sea pansy luciferase (from pRL-TK) Ratio
Experimental: For the measured values of the amount of expression of the cell number reporter gene, a ratio is determined of the measured value in the test substance added group to the measured value in the only solvent added group (control group). When the ratio is, for example, in the range of 0.8 to 1.2, the measured value of the amount of expression of the ligand responsive reporter gene in the test substance added group is selected for evaluating the agonist or antagonist activity of the test substance against the ability of a ligand responsive transcriptional regulatory factor to promote transcription. When the ratio takes a small value such as smaller than 0.8, for example, it is possible that the test substance has cytotoxicity. In contrast, when the ratio takes a large value such as greater than 1.2, for example, it is possible that the test substance has activity against the transcriptional regulatory system of a gene without mediation of a ligand responsive transcriptional regulatory factor. However, the range of this ratio suitable for selecting the measured value of the amount of expression of the […] reporter gene may vary depending on certain properties of the present cells used and the conditions of measurement, and it is not limited to the above examples of numerical values.
Separately, plasmid pGV-Ya-XREx5 (ligand responsive reporter gene containing plasmid) constructed in Example 1 was digested with Bam HI. Further, plasmid pRL-TK (cell number reporter gene containing plasmid; marketed by Toyo Ink) containing the sea pansy luciferase gene used as the cell number reporter gene was digested with Bam HI, and neomycin resistance (aminoglycoside phosphotransferase) gene containing plasmid pRc/RSV (available from INVITROGEN) was digested with Hind III. These three digested plasmids, i.e., Bam HI digested pGV-Ya-XREx5 (2.8 µg), Bam HI digested pRL-TK (2.8 µg), and Hind III digested pRc/RSV (0.5 µg), were then mixed with 300 µl of αMEM medium (mixture A), while 36 µl of lipofectin (available from GIBCO-BRL) was mixed with 300 µl of αMEM medium (mixture B). After being left at room temperature for 30 minutes, mixtures A and B were combined together and left at room temperature for 10 minutes. The Hepa1clc7 cells cultured overnight as described above were then washed once with αMEM medium, to which there was added a solution prepared by adding and mixing additional 5.4 ml of αMEM medium to the above mixture (A + B). Culturing of the resulting mixture was carried out for 5 hours. The medium was then replaced with 10% serum containing αMEM medium, followed by further culturing overnight. Subsequently, the cells were scratched from the petri dishes and collected, and the collected cells were suspended in 10% serum containing αMEM medium to have the total volume of 100 ml. The resulting cell suspension was plated on 96 well plates at a ratio of 100 µl/well. After these plates were cultured overnight, a medium prepared by dissolving geneticin (hereinafter referred to as "G418") in 10% serum containing αMEM medium to have a concentration of 1.6 mg/ml was added at a ratio of 100 µl/well (G418 final concentration 800 µg/ml). Culturing was further continued for 3 weeks, during which the medium was replaced with 10% serum containing αMEM medium containing 800 µg/ml G418 at a rate of once per week. The volume of the medium was set at 200 µl/well. After said 3 weeks, cells were scratched from the wells in which colony formation had been observed, and collected (for 192 wells), and the collected cells were divided into three and independently plated on different plates, followed by continuous culturing for 4 days. To the first plate, only DMSO was added (solvent control), and to the second plate, 3-methylcholanthrene (hereinafter referred to as "3-MC") dissolved in DMSO was added so that the final concentration of 3-MC in the second plate came to 10 µM per well. The first and second plates were then cultured overnight. […]

## Clc1cc2c(cc1Cl)Oc1cc(Cl)c(Cl)cc1O2 [TCDD, 2,3,7,8-tetrachlorodibenzo-p-dioxin]
Final conc. 0.02 pg/ml
  viability at 40 h: 100%
Final conc. 0.2 pg/ml
  viability at 40 h: 90%
Final conc. 2 pg/ml
  viability at 40 h: 90%
Final conc. 20 pg/ml
  viability at 40 h: 80%
Final conc. 200 pg/ml
  viability at 40 h: 70%
Final conc. 2000 pg/ml
  viability at 40 h: 60%
Final conc. 20000 pg/ml
  viability at 40 h: 60%
